Laboratory results published in ChEMBL document CHEMBL1126889, “Dopamine receptor modulation by a highly rigid spiro bicyclic peptidomimetic of Pro-Leu-Gly-NH2” (J Med Chem, 1993).
Residues, ends and D or L forms follow the SMILES beside them.

Tests used:
[1] = molecular target: T1, Dopamine receptor (Bos taurus) (UniProt Q95136+P20288); test: Tested for ability to enhance the binding of the dopamine receptor agonist [3H]ADTN to striatal dopamine receptors in vitro; format: protein assay
[2] = molecular target: T1, Dopamine receptor (Bos taurus); test: Tested for ability to enhance the binding of the dopamine receptor agonist [3H]-ADTN to striatal dopamine receptors in vitro at 10 e-6 M; format: protein assay

| Structure (SMILES) | Binding [1] [%] | Binding [2] [%] |
| --- | --- | --- |
| CC(C)C[C@H](NC(=O)[C@@H]1CCCN1)C(=O)NCC(N)=O (H-Pro-Leu-Gly-NH2) | 26 | – |
| NC(=O)[C@H]1CS[C@@H]2C[C@]3(CCCN3C(=O)C3CCCN3)C(=O)N12 (some centres not stated) | – | 40 |
